{
  "source": "patent US10407395B2",
  "about": "“Benzimidazole compound and medical use thereof” (Sumitomo Dainippon Pharma Co., Ltd., priority 2015, dated 2019)",
  "data": [
    {"target": "human SCN9A (Nav 1.7) (Homo sapiens, UniProt Q15858)", "sequence (Q15858 whole entry)": "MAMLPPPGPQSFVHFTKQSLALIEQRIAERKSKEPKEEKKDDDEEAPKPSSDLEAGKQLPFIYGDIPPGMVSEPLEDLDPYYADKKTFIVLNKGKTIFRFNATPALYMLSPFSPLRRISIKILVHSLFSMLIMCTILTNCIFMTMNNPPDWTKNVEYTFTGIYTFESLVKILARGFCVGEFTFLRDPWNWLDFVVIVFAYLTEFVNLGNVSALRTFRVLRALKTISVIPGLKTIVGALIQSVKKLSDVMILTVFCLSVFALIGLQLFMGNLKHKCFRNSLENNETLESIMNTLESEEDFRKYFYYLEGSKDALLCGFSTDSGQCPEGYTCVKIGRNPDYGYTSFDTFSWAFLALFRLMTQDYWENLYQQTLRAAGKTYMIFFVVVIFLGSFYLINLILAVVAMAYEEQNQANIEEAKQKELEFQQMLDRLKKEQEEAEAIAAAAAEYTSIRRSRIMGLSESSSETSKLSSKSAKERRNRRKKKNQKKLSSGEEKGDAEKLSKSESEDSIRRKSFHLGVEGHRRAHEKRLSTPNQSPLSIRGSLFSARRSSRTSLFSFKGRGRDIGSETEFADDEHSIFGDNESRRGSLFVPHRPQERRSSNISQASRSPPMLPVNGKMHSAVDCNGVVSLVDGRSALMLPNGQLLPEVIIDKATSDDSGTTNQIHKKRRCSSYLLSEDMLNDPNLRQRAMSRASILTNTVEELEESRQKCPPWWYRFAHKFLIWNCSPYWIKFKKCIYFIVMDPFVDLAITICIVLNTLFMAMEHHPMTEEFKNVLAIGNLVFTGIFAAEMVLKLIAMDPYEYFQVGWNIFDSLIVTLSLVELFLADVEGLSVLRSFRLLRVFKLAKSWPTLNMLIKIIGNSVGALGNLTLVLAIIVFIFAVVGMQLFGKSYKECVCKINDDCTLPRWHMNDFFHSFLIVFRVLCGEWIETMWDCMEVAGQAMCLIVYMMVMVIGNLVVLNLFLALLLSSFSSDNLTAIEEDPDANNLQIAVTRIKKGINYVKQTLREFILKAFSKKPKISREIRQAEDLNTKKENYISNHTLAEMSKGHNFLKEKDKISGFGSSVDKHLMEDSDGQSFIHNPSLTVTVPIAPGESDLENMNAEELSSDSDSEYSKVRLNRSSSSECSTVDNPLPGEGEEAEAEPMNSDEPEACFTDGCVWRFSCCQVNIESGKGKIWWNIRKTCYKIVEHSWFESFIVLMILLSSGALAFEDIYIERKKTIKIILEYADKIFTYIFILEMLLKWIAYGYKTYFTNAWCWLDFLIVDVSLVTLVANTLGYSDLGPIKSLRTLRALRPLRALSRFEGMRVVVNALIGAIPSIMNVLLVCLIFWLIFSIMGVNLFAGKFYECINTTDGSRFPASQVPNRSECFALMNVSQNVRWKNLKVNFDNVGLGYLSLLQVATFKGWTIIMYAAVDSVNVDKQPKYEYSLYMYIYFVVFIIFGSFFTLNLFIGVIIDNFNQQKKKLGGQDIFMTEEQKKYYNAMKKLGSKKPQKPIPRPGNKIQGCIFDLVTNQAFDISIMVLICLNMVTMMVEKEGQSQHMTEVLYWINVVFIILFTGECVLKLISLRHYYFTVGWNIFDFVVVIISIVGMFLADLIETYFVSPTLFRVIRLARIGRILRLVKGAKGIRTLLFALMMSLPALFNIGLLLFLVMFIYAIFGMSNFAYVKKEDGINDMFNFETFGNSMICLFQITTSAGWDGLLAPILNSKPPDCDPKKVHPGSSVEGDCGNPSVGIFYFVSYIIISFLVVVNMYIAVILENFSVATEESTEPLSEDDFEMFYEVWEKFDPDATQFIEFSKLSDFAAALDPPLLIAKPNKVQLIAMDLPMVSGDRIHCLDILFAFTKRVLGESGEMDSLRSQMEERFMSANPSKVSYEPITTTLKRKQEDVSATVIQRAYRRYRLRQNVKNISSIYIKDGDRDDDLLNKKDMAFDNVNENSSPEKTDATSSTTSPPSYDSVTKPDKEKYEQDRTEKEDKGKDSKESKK", "experiment": "Measurement of Na ion current (Nav 1.7) by automated patch clamp assay in cells stably-expressing human SCN9A", "format": "cell-based", "details": "compound concentration 10 μmol/L; holding potential inactivating 50% Nav 1.7 channel (around −60 mV); read-out: Inhibitory rate (%) of Na ion current", "description": "(§1) Measurement of Na Ion Current in Voltage-Dependent Na Channel Gene Expressed Cell Nav 1.7 current was measured by automated patch clamp assay using cells stably-expressing human SCN9A. Cells Stably-expressing Human SCN9A Tetracycline-induced cells stably-expressing SCN9A were obtained from ChanTest Corporation. […] Next day, the Na ion current was measured by automated patch clamp assay. Electrophysiologic Measurement of Na Ion Current The Na ion current was measured by automated patch clamp assay using the following extracellular solution and intracellular solution. […] The control of the stimulating pulse and the data acquisition were carried out using EPC10 amplifier and Patch Master Software (HEKA). Data were sampled at 10 kHz, and low-pass filtered at 3 kHz. All the measurements were carried out at room temperature. […] The inhibitory rate of the Na ion current by the test compounds was calculated according to the following calculating formula with the peak current value generated by the depolarizing pulse. […] The inhibitory rate of Na ion current by each Example Compound was evaluated.", "units": {"inhibition at 10 µM": "%"}, "values": [
      {"smiles": "Fc1ccc(Oc2ccc3ncn(CC4CCCO4)c3c2)cc1", "note": "(centres unmarked) [Example 2, 6-(4-fluorophenoxy)-1-(tetrahydrofuran-2-ylmethyl)-1H-benzimidazole]", "inhibition at 10 µM": 85},
      {"smiles": "CC(C)OCCn1cnc2ccc(Oc3ccc(F)cc3)cc21", "note": "[Example 3, 6-(4-fluorophenoxy)-1-[2-(propan-2-yloxy)ethyl]-1H-benzimidazole]", "inhibition at 10 µM": 65},
      {"smiles": "Fc1ccc(Oc2ccc3ncn(CCOC4CCCC4)c3c2)cc1", "note": "[Example 4, 1-[2-(cyclopentyloxy)ethyl]-6-(4-fluorophenoxy)-1H-benzimidazole]", "inhibition at 10 µM": 52},
      {"smiles": "CC(C)(O)Cn1cnc2ccc(-c3ccc(F)cc3)cc21", "note": "[Example 5, 1-[6-(4-fluorophenyl)-1H-benzimidazol-1-yl]-2-methylpropan-2-ol]", "inhibition at 10 µM": 39},
      {"smiles": "Fc1ccc(-c2ccc3ncn(CC4CCCO4)c3c2)cc1", "note": "(centres unmarked) [Example 6]", "inhibition at 10 µM": 41},
      {"smiles": "FC(F)(F)c1ccc(-c2ccc3ncn(CC4CCCO4)c3c2)cc1", "note": "(centres unmarked) [Example 7, 1-(tetrahydrofuran-2-ylmethyl)-6-[4-(trifluoromethyl)phenyl]-1H-benzimidazole]", "inhibition at 10 µM": 67},
      {"smiles": "FC(F)(F)c1ccc(-c2ccc3ncn(CC4CCCO4)c3c2)nc1", "note": "(centres unmarked) [Example 8]", "inhibition at 10 µM": 32},
      {"smiles": "CC(C)(O)Cn1cnc2ccc(-c3ccc(C(F)(F)F)cc3)cc21", "note": "[Example 9, 2-methyl-1-{6-[4-(trifluoromethyl)phenyl]-1H-benzimidazol-1-yl}propan-2-ol]", "inhibition at 10 µM": 77},
      {"smiles": "FC(F)(F)c1ccc(-c2ccc3ncn(CCOC4CCCC4)c3c2)cc1", "note": "[Example 10, 1-[2-(cyclopentyloxy)ethyl]-6-[4-(trifluoromethyl)phenyl]-1H-benzimidazole]", "inhibition at 10 µM": 52},
      {"smiles": "CC(C)(O)Cn1cnc2ccc(-c3ccc(C(F)(F)F)cn3)cc21", "note": "[Example 11, 2-methyl-1-{6-[5-(trifluoromethyl)pyridin-2-yl]-1H-benzimidazol-1-yl}propan-2-ol]", "inhibition at 10 µM": 75},
      {"smiles": "FC(F)(F)c1ccc(-c2ccc3ncn(CCOC4CCCC4)c3c2)nc1", "note": "[Example 12, 1-[2-(cyclopentyloxy)ethyl]-6-[5-(trifluoromethyl)pyridin-2-yl]-1H-benzimidazole]", "inhibition at 10 µM": 58},
      {"smiles": "CC(C)(O)Cn1cnc2ccc(Oc3ccccc3)cc21", "note": "[Example 13, 2-methyl-1-(6-phenoxy-1H-benzimidazol-1-yl)propan-2-ol]", "inhibition at 10 µM": 25},
      {"smiles": "CC(C)(O)Cn1cnc2ccc(Oc3ccc(C(F)(F)F)cc3)cc21", "note": "[Example 15, 2-methyl-1-{6-[4-(trifluoromethyl)phenoxy]-1H-benzimidazol-1-yl}propan-2-ol]", "inhibition at 10 µM": 57},
      {"smiles": "CC(C)(O)Cn1cnc2ccc(Oc3ccc(OC(F)(F)F)cc3)cc21", "note": "[Example 22, 2-methyl-1-{6-[4-(trifluoromethoxy)phenoxy]-1H-benzimidazol-1-yl}propan-2-ol]", "inhibition at 10 µM": 73},
      {"smiles": "Cc1ccc(Oc2ccc3ncn(CC(C)(C)O)c3c2)cn1", "note": "[Example 24, 2-methyl-1-{6-[(6-methylpyridin-3-yl)oxy]-1H-benzimidazol-1-yl}propan-2-ol]", "inhibition at 10 µM": 56},
      {"smiles": "CC(C)(O)Cn1cnc2ccc(Oc3ccc(C(F)(F)F)nc3)cc21", "note": "[Example 25, 2-methyl-1-(6-{[6-(trifluoromethyl)pyridin-3-yl]oxy}-1H-benzimidazol-1-yl)propan-2-ol]", "inhibition at 10 µM": 72},
      {"smiles": "CC(C)(O)Cn1cnc2cc(Oc3cccc(C(F)(F)F)n3)ccc21", "note": "[Example 43, 2-methyl-1-(5-{[6-(trifluoromethyl)pyridin-2-yl]oxy}-1H-benzimidazol-1-yl)propan-2-ol]", "inhibition at 10 µM": 20},
      {"smiles": "CC(C)(O)Cn1cnc2cc(Oc3cnc(C(F)(F)F)cn3)ccc21", "note": "[Example 51, 2-methyl-1-(5-{[5-(trifluoromethyl)pyrazin-2-yl]oxy}-1H-benzimidazol-1-yl)propan-2-ol]", "inhibition at 10 µM": 44},
      {"smiles": "CC(C)(O)Cn1cnc2cc(Oc3ncc(C(F)(F)F)cn3)ccc21", "note": "[Example 52, 2-methyl-1-(5-{[5-(trifluoromethyl)pyrimidin-2-yl]oxy}-1H-benzimidazol-1-yl)propan-2-ol]", "inhibition at 10 µM": 46},
      {"smiles": "CC(C)(O)Cn1cnc2cc(Oc3ncc(C(F)(F)F)cc3F)ccc21", "note": "[Example 53, 1-(5-{[3-fluoro-5-(trifluoromethyl)pyridin-2-yl]oxy}-1H-benzimidazol-1-yl)-2-methylpropan-2-ol]", "inhibition at 10 µM": 69},
      {"smiles": "CC(C)(O)Cn1cnc2cc(Oc3ncc(Cl)cc3F)ccc21", "note": "[Example 54, 1-{5-[(5-chloro-3-fluoropyridin-2-yl)oxy]-1H-benzimidazol-1-yl}-2-methylpropan-2-ol]", "inhibition at 10 µM": 62},
      {"smiles": "OC1(Cn2cnc3ccc(Oc4ccc(C(F)(F)F)cn4)cc32)CCOCC1", "note": "[Example 55]", "inhibition at 10 µM": 37},
      {"smiles": "OC1(Cn2cnc3ccc(Oc4ccc(C(F)(F)F)cn4)cc32)COC1", "note": "[Example 56, 3-[(6-{[5-(trifluoromethyl)pyridin-2-yl]oxy}-1H-benzimidazol-1-yl)methyl]oxetan-3-ol]", "inhibition at 10 µM": 45},
      {"smiles": "OC1(Cn2cnc3ccc(Oc4ccc(C(F)(F)F)cn4)cc32)CC1", "note": "[Example 57]", "inhibition at 10 µM": 47},
      {"smiles": "OC1(Cn2cnc3ccc(Oc4ccc(C(F)(F)F)cn4)cc32)CCC1", "note": "[Example 58, 1-[(6-{[5-(trifluoromethyl)pyridin-2-yl]oxy}-1H-benzimidazol-1-yl)methyl]cyclobutanol]", "inhibition at 10 µM": 48},
      {"smiles": "CC(C)(O)Cn1cnc2ccc(Oc3ccc(CC(F)(F)F)cn3)cc21", "note": "[Example 60, 2-methyl-1-(6-{[5-(2,2,2-trifluoroethyl)pyridin-2-yl]oxy}-1H-benzimidazol-1-yl)propan-2-ol]", "inhibition at 10 µM": 52},
      {"smiles": "OC1(Cn2cnc3ccc(Oc4ccc(F)cc4)cc32)COC1", "note": "[Example 90]", "inhibition at 10 µM": 15},
      {"smiles": "OC1(Cn2cnc3ccc(Oc4ccc(Cl)cc4)cc32)COC1", "note": "[Example 91]", "inhibition at 10 µM": 24},
      {"smiles": "Cc1ccc(Oc2ccc3ncn(CC4(O)COC4)c3c2)cc1", "note": "[Example 92]", "inhibition at 10 µM": 16},
      {"smiles": "OC1(Cn2cnc3ccc(Oc4ccc(C(F)(F)F)cc4)cc32)COC1", "note": "[Example 93, 3-({6-[4-(trifluoromethyl)phenoxy]-1H-benzimidazol-1-yl}methyl)oxetan-3-ol]", "inhibition at 10 µM": 42},
      {"smiles": "CC(C)(O)CCn1cnc2ccc(Oc3ccc(OC(F)(F)F)cc3)cc21", "note": "[Example 97]", "inhibition at 10 µM": 83},
      {"smiles": "CC(C)(O)CCn1cnc2ccc(Oc3cccc(F)c3)cc21", "note": "[Example 98]", "inhibition at 10 µM": 25},
      {"smiles": "Cc1ccc(Oc2ccc3ncn(CCC(C)(C)O)c3c2)cc1", "note": "[Example 99]", "inhibition at 10 µM": 12},
      {"smiles": "CC(C)(O)CCn1cnc2ccc(Oc3ccc(F)cc3)cc21", "note": "[Example 100]", "inhibition at 10 µM": 10},
      {"smiles": "CC(C)(O)CCn1cnc2ccc(Oc3ccc(C(F)(F)F)cc3)cc21", "note": "[Example 102]", "inhibition at 10 µM": 59},
      {"smiles": "CC(C)(O)CCn1cnc2ccc(Oc3ccc(C(F)(F)F)nc3)cc21", "note": "[Example 103]", "inhibition at 10 µM": 10},
      {"smiles": "CC(C)(O)Cn1cnc2ccc(Oc3ccc(CC(F)(F)F)cc3)cc21", "note": "[Example 104]", "inhibition at 10 µM": 57},
      {"smiles": "OC1(Cn2cnc3ccc(Oc4ccc(CC(F)(F)F)cc4)cc32)COC1", "note": "[Example 105]", "inhibition at 10 µM": 38}
    ]},
    {"target": "human SCN9A (Nav 1.7) (Homo sapiens, UniProt Q15858)", "experiment": "Measurement of Na ion current (Nav 1.7) by automated patch clamp assay in cells stably-expressing human SCN9A", "format": "cell-based", "details": "compound concentration 100 μmol/L (footnoted examples); holding potential inactivating 50% Nav 1.7 channel (around −60 mV); read-out: Inhibitory rate (%) of Na ion current", "description": "as §1", "units": {"inhibition at 100 µM": "%"}, "values": [
      {"smiles": "OC1(Cn2cnc3ccc(Oc4cccc(F)c4)cc32)COC1", "note": "[Example 95]", "inhibition at 100 µM": 66},
      {"smiles": "OC1(Cn2cnc3ccc(Oc4ccc(C(F)(F)F)nc4)cc32)COC1", "note": "[Example 96]", "inhibition at 100 µM": 32}
    ]},
    {"target": "human SCN9A (Nav 1.7) (Homo sapiens, UniProt Q15858)", "experiment": "Measurement of Na ion current (Nav 1.7) by automated patch clamp assay in cells stably-expressing human SCN9A", "format": "cell-based", "details": "read-out: Inhibitory rate (%) of Na ion current", "description": "as §1", "units": {"inhibition at 10 µM": "%"}, "values": [
      {"smiles": "Cc1ccc(Oc2ccc3ncn(CC(C)(C)O)c3c2)cc1", "note": "[Example 14, 2-methyl-1-[6-(4-methylphenoxy)-1H-benzimidazol-1-yl]propan-2-ol]", "inhibition at 10 µM": 68}
    ]}
  ]
}
